# ChEMBL document CHEMBL6134813, “Arctigenin derivative TZOA restores mitochondrial homeostasis to combat rhabdovirus infections” (Eur J Med Chem, 2025)
# Calls of active or inactive are those of the source. The rule behind the calls is not given here.
# Legend:
# [1] = test system: Infectious hematopoietic necrosis virus; test: Antiviral activity against IHNV infected in EPC cells (unknown origin) assessed as mtDNA intact with mitochondria at 25 uM incubated for 72 hrs by TOMM20 dye based analysis; assay type: functional, organism-based
# [2] = test system: Infectious hematopoietic necrosis virus; test: Antiviral activity against IHNV infected in EPC cells (unknown origin) assessed as reduction in virus-induced mitochondrial-lysosomal contact at 25 uM incubated for 72 hrs by Mito-Tracker/Lyso-Tracker dye based analysis; assay type: functional, organism-based
# [3] = test system: Infectious hematopoietic necrosis virus; test: Antiviral activity against IHNV infected in EPC cells (unknown origin) assessed as elongated rod-shaped mitochondria with double layered membrane by TEM analysis; assay type: functional, organism-based
# [4] = test system: Infectious hematopoietic necrosis virus; test: Antiviral activity against IHNV infected in EPC cells (unknown origin) assessed as smooth outer membrane in mitochondria by TEM analysis; assay type: functional, organism-based
# [5] = test system: Infectious hematopoietic necrosis virus; test: Antiviral activity against IHNV infected in EPC cells (unknown origin) assessed as cristae of varying lengths with attached granules in inner membrane of mitochondria by TEM analysis; assay type: functional, organism-based
# [6] = test system: Infectious hematopoietic necrosis virus; test: Antiviral activity against IHNV infected in EPC cells (unknown origin) assessed as formation of tubular structures by cristae by TEM analysis; assay type: functional, organism-based
# [7] = test system: Infectious hematopoietic necrosis virus; test: Antiviral activity against IHNV infected in EPC cells (unknown origin) assessed as mitochondrial length by TEM analysis (reference value: 0.2 to 0.7 um); assay type: functional
# [8] = test system: Infectious hematopoietic necrosis virus; test: Antiviral activity against IHNV infected in EPC cells (unknown origin) assessed as area of mitochondria by TEM analysis (reference value: 0.05 to 0.2 um2); assay type: functional
# [9] = test system: Infectious hematopoietic necrosis virus; test: Antiviral activity against IHNV infected in EPC cells (unknown origin) assessed as decrease in virus-induced number of individual mitochondria per cell at 25 uM incubated for 72 hrs by Mito-Tracker dye based analysis; assay type: functional, organism-based
# [10] = test system: Infectious hematopoietic necrosis virus; test: Antiviral activity against IHNV infected in EPC cells (unknown origin) assessed as increase in virus-reduced average number of mitochondrial networks within cells at 25 uM incubated for 72 hrs by Mito-Tracker dye based analysis; assay type: functional, organism-based
# [11] = test system: Infectious hematopoietic necrosis virus; test: Antiviral activity against IHNV infected in EPC cells (unknown origin) assessed as increase in virus-reduced MAVS expression in cells by Western blot analysis; assay type: functional, organism-based
# [12] = test system: Infectious hematopoietic necrosis virus; test: Antiviral activity against IHNV infected in juvenile rainbow trout assessed as increase in survival rate administered intraperitoneally measured for 14 days relative to control; assay type: functional; conditions: route ip; time 14 day
# [13] = test system: Infectious hematopoietic necrosis virus; test: Antiviral activity against IHNV infected in juvenile rainbow trout assessed as decrease in viral G gene expression in spleen administered intraperitoneally measured after 1 to 4 days by RT-qPCR analysis; assay type: functional, organism-based; conditions: route ip, time 1-4 day
# [14] = test system: Infectious hematopoietic necrosis virus; test: Antiviral activity against IHNV infected in juvenile rainbow trout assessed as decrease in viral G gene expression in kidney administered intraperitoneally measured after 1 to 4 days by RT-qPCR analysis; assay type: functional, organism-based; conditions: route ip, time 1-4 day
# [15] = test system: Infectious hematopoietic necrosis virus; test: Antiviral activity against IHNV infected in juvenile rainbow trout assessed as increase in IFN-1 gene expression in kidney administered intraperitoneally measured after 2 days by RT-qPCR analysis; assay type: functional, organism-based; conditions: route ip, time 2.0 day
# [16] = test system: Infectious hematopoietic necrosis virus; test: Antiviral activity against IHNV infected in juvenile rainbow trout assessed as increase in Mx1 gene expression in kidney administered intraperitoneally measured after 2 days by RT-qPCR analysis; assay type: functional, organism-based; conditions: route ip, time 2.0 day
# [17] = test system: Infectious hematopoietic necrosis virus; test: Antiviral activity against IHNV infected in juvenile rainbow trout assessed as increase in IRF3 gene expression in kidney administered intraperitoneally measured after 2 days by RT-qPCR analysis; assay type: functional, organism-based; conditions: route ip, time 2.0 day
# [18] = test system: Infectious hematopoietic necrosis virus; test: Antiviral activity against IHNV infected in juvenile rainbow trout assessed as increase in ISG15 gene expression in kidney administered intraperitoneally measured after 2 days by RT-qPCR analysis; assay type: functional, organism-based; conditions: route ip, time 2.0 day
# [19] = test system: Infectious hematopoietic necrosis virus; test: Antiviral activity against IHNV infected in juvenile rainbow trout assessed as increase in IFN-1 gene expression in spleen administered intraperitoneally measured after 2 days by RT-qPCR analysis; assay type: functional, organism-based; conditions: route ip, time 2.0 day
# [20] = test system: Infectious hematopoietic necrosis virus; test: Antiviral activity against IHNV infected in juvenile rainbow trout assessed as increase in Mx1 gene expression in spleen administered intraperitoneally measured after 2 days by RT-qPCR analysis; assay type: functional, organism-based; conditions: route ip, time 2.0 day
# [21] = test system: Infectious hematopoietic necrosis virus; test: Antiviral activity against IHNV infected in juvenile rainbow trout assessed as increase in IRF3 gene expression in spleen administered intraperitoneally measured after 2 days by RT-qPCR analysis; assay type: functional, organism-based; conditions: route ip, time 2.0 day
# [22] = test system: Infectious hematopoietic necrosis virus; test: Antiviral activity against IHNV infected in juvenile rainbow trout assessed as increase in ISG15 gene expression in spleen administered intraperitoneally measured after 2 days by RT-qPCR analysis; assay type: functional, organism-based; conditions: route ip, time 2.0 day
# [23] = test system: Infectious hematopoietic necrosis virus; test: Antiviral activity against IHNV infected in juvenile rainbow trout assessed as decrease in hemorrhage in spleen administered intraperitoneally measured after 2 days by H and E staining based analysis; assay type: functional, organism-based; conditions: route ip, time 2.0 day
# [24] = test system: Infectious hematopoietic necrosis virus; test: Antiviral activity against IHNV infected in juvenile rainbow trout assessed as decrease in erythrocytes in spleen administered intraperitoneally measured after 2 days by H and E staining based analysis; assay type: functional, organism-based; conditions: route ip, time 2.0 day
# [25] = test system: Infectious hematopoietic necrosis virus; test: Antiviral activity against IHNV infected in juvenile rainbow trout assessed as decrease in hemorrhage in kidney administered intraperitoneally measured after 2 days by H and E staining based analysis; assay type: functional, organism-based; conditions: route ip, time 2.0 day
# [26] = test system: Infectious hematopoietic necrosis virus; test: Antiviral activity against IHNV infected in juvenile rainbow trout assessed as decrease in erythrocytes in kidney administered intraperitoneally measured after 2 days by H and E staining based analysis; assay type: functional, organism-based; conditions: route ip, time 2.0 day
# [27] = test system: Infectious hematopoietic necrosis virus; test: (§1) Antiviral activity against IHNV infected in juvenile rainbow trout assessed as decrease in viral titer in donor fishes on horizontal transmission between virus-infected donor fishes and non-infected recipient fishes at 25 uM immersed together in compound for 48 hrs; assay type: functional, organism-based
# [28] = test system: Infectious hematopoietic necrosis virus; test: Antiviral activity against IHNV infected in juvenile rainbow trout assessed as decrease in viral titer in recipient fishes on horizontal transmission between virus-infected donor fishes and non-infected recipient fishes at 25 uM immersed together in compound for 48 hrs; assay type: functional, organism-based
# [29] = test system: Infectious hematopoietic necrosis virus; test: as §1, with “viral G gene expression” for “viral titer”, “in spleen of recipient” for “in donor”, “hrs by qPCR analysis” for “hrs”; assay type: functional, organism-based
# [30] = test system: Infectious hematopoietic necrosis virus; test: as §1, with “viral G gene expression” for “viral titer”, “in kidney of recipient” for “in donor”, “hrs by qPCR analysis” for “hrs”; assay type: functional, organism-based
smiles,measurement,setting,value
COc1ccc(C[C@H]2COC(=O)[C@@H]2Cc2ccc(OCCCCCCCCn3cncn3)c(OC)c2)cc1OC,Activity,[1],Active
same,Activity,[2],Active
same,Activity,[3],Active
same,Activity,[4],Active
same,Activity,[5],Active
same,Activity,[6],"Active; The Cristae Formed Tubular Structures, With The Inter-Membrane Space Forming The Mitochondrial Outer Chamber And Connecting Cristae Inner Spaces"
same,Activity,[7],0.8 um
same,Activity,[8],0.2 um2
same,Activity,[9],Active
same,Activity,[10],Active
same,Activity,[11],Active
same,Survival,[12],44%
same,Activity,[13],Active
same,Activity,[14],Active
same,Activity,[15],Active
same,Activity,[16],Active
same,Activity,[17],Active
same,Activity,[18],Active
same,Activity,[19],Active
same,Activity,[20],Active
same,Activity,[21],Active
same,Activity,[22],Active
same,Activity,[23],Active
same,Activity,[24],Active
same,Activity,[25],Active
same,Activity,[26],Active
same,Activity,[27],Active
same,Activity,[28],Active
same,Activity,[29],Active
same,Activity,[30],Active
